The source of these data is publication PMC3481155, “AhR activation underlies the CYP1A autoinduction by A-998679 in rats” (Frontiers in Genetics, 2012).

By pIC50 is commonly meant the IC50 on a negative log10 scale, so that one unit is a factor of ten. Lower therefore signals a large IC50.

For one series, the target named is T1, CYP2C9 (Homo sapiens, UniProt P11712).
T1 construct: from tissue; host or cells: human liver microsomes
The experiment in a line: CYP inhibition evaluation in human liver microsomes, CYP2C9 (diclofenac). The conditions noted are these: probe substrate diclofenac. Format: in vitro ADME. Here is the method:
Incubations were performed in human liver microsomes using probe substrate concentrations similar to their corresponding Km values. Enzyme activity was evaluated in the presence of various concentrations of A-998679. The incubations consisted of the test article at varying concentrations (0–30 μM), probe substrate (concentration ~Km, see Table A2), human liver microsomal protein and 1 mM NADPH in 50 mM phosphate buffer at pH 7.4. Relative quantitation of the metabolites was obtained by LC-MS/MS using an ABSciex (Foster City, CA) API3000 or API4000 Qtrap hybrid linear ion trap mass spectrometer equipped with a TurboIonspray source using either PerkinElmer series 200 pumps or Agilent 1100 series pump with a Leap autosampler. Analytes were separated using a Phenomenex Prodigy ODS(3) 5 μm, 50 × 2.0 mm column at 50°C, eluted and detected under the specific conditions listed in Tables A3, A4, and A5. The analyte to internal standard peak area ratios were determined using Analyst 1.4 software (Applied Biosytems, Carlsbad, CA). The peak area ratios observed in the presence of test article were compared to the vehicle control in order to determine percent activity. To determine the IC50, the data were plotted as Log [dose] μM vs. % inhibition, and analyzed with a sigmoidal dose-response (variable slope) fitting equation. […]
In general terms: Liver microsomes are a subcellular fraction often used to study metabolism.

The subject of a further series is CYP1A2. The experiment in a line: CYP1A2 mRNA induction in primary dog hepatocytes. Format: cell-based. The conditions noted are these: 10 μM, 48 h, data not shown. Here is the method:
Rat hepatocytes were isolated in a perfusion procedure as described previously (Elliget and Kolaja, [1983]; Waring et al., [2001]). The beagle dog hepatocytes were isolated in the same manner, except for adjustment of flow rate and buffer volume to scale to liver size. Cells were plated at a seeding density of 1.0 × 10^6 cells per well on 6-well, collagen-type I coated plates (BD Biosciences, Bedford, MA) in hepatocyte plating medium (Celsis, Baltimore, MD). Cells were allowed to attach for 24 h in a 37°C humidified incubator with a 5% CO2 atmosphere and were dosed for 24 h (rat) or 48 h (dog) with vehicle control [0.1% DMSO (v/v)] or 10 μM A-998679 in fresh treatment media (Celsis hepatocyte incubation media) every 24 h. After the last incubation, cells were lysed in 1 ml of Qiazol (Qiagen) and stored at −80°C until RNA isolation. Cryopreserved human hepatocytes (donor designation Hu4198; Invitrogen Life Technologies, Carlsbad, CA) were thawed and plated according to the manufacturer's protocol and allowed to incubate for 24 h. […]
RNA samples were diluted with RNase-free molecular biology grade water to a concentration of 20 ng/μl total RNA. […] Results were analyzed by calculating the fold change of CYP1A1 and/or CYP1A2 mRNA levels normalized to 28S rRNA (ΔΔ Ct) in compound treated cells or tissues compared to vehicle levels. […]

pIC50: −log10 of the molar value.

T1 sequence (P11712 whole entry): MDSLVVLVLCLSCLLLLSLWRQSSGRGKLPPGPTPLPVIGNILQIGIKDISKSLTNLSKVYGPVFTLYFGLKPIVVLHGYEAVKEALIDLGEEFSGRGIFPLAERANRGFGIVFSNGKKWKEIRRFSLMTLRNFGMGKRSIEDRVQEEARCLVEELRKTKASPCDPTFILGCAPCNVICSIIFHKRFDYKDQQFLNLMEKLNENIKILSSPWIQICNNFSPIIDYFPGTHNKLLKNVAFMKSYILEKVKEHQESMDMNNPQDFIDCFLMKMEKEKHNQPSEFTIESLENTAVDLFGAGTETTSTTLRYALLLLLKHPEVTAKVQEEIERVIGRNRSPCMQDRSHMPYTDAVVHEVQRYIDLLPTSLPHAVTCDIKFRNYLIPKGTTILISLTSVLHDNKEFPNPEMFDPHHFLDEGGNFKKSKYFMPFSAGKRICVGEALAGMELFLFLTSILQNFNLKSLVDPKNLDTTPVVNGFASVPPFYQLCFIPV

In turn, `N#Cc1cccc(-c2noc(-c3cccnc3)n2)c1` [A-998679, 3-(5-pyridin-3-yl-1,2,4-oxadiazol-3-yl) benzonitrile] showed a pIC50 against CYP2C9 below 4.52. For the same compound, in the series with CYP1A2, the “CYP1A2 mRNA induction” value was “also observed”.
